Several values for one entry are separate records, joined by “and”; a condition that tells them apart may be missing. Identical values can stand only once.
Tests used:
cFOS = cFOS positive neurons in hypothalamic nuclei (ARC, VMH, DMH) after a single s.c. dose (Fig. 7a,b; Extended Data Fig. 4a–c); format: in vivo, mouse
Description: For cFOS analysis, mice were treated s.c. with a single dose of 150 nmol kg^−1. Tissues were harvested 90 min following drug exposure. Fixed brains were coronally cryosectioned and 35-μm-thick slices were immunolabelled with the monoclonal rabbit anti-cFOS antibody (1:400, Invitrogen, no. MA5-15055) and the antirabbit Alexa546 secondary antibody (1:4,000, Invitrogen, no. A10040). According to the Allen mouse brain atlas, the ARC and the dorsomedial and ventromedial hypothalamic nuclei were captured at ×20 magnification using the Leica SP8 confocal microscope. In each region, the number of cFOS positive cells was counted in a blinded manner using Fiji/ImageJ software. For assessment of central nervous system drug appearance, mice (n = 3–4 each group) were treated with a single s.c. dose of the Cy5-labelled peptides (150 nmol kg^−1). After 90 min, tissues were harvested and processed similar to the cFOS analysis.

hGLP-1R [1] = target: T1, hGLP-1R (Homo sapiens, UniProt P43220); test: Ligand-induced hGLP-1R-GFP Mini-Gαs recruitment (BRET) in mouse MIN6 β-cells; format: cell-based; settings: Fig. 1d, in words
T1 construct: host or cells: HEK293T, transient transfection
T1 sequence (P43220 24-463): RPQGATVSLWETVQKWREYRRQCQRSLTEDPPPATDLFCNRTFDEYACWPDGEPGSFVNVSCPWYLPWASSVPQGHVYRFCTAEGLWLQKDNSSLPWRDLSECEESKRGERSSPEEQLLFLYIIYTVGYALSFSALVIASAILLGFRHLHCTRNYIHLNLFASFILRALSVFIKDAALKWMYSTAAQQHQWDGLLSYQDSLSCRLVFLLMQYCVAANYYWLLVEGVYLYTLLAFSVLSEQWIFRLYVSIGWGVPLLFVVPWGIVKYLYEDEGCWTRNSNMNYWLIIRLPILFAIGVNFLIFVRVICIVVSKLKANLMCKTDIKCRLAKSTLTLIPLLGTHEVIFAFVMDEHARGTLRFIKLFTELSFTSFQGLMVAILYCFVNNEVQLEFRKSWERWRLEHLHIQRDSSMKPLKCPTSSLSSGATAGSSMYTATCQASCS
Description: (§1) HEK293T cells (700,000 per well) were seeded in six-well plates and incubated to 70% confluency in DMEM (10% FBS, 1% Pen/Strep). Twenty-four hours following seeding, transient transfections were performed using Lipofectamine 2000 (catalogue no. 11668019, Invitrogen) according to the manufacturer’s protocol without including additional transformation carrier DNA.
(§2) Twenty-four hours following transfection, HEK293T cells or MIN6 cells were washed with PBS and resuspended in FluoroBrite phenol red-free complete media (catalogue no. A1896701, Life Technologies) containing 5% FBS and 2 mM of L-glutamine (catalogue no. 25030081, Life Technologies). 100,000 cells per well were plated into poly-D-lysine-coated (catalogue no. P6403, Sigma-Aldrich) 96-well white polystyrene LumiNunc plates (catalogue no. 10072151, Thermo Fisher Scientific). After 24 h, the media was replaced with PBS (catalogue no. 10010056, Gibco) containing 10 μM of coelenterazine-h (catalogue no. S2011, Promega) or 1:500 dilution of NanoGlo (catalogue no. N1110, Promega). BRET measurements were taken every 30 s–2 min using a PHERAstar FS multi-mode microplate reader. […] The resulting ligand-specific ratiometric BRET signals were normalized to vehicle producing the ‘ligand-induced BRET ratio’[37], followed by an additional normalization step to well-specific baseline readings.

DIO mice = test: Acute i.p. glucose tolerance test in DIO mice 6 h after a single s.c. dose (Fig. 3); format: in vivo, mouse; parameters: AOC: unit not given here; settings: for AOC: AOC of i.p. GTT, DIO mice, 6 h after single s.c. dose, individual animals
Description: (§3) Glp1r^−/− mice were kindly provided by D. Drucker (University of Toronto, Canada). All wildtype and knockout mice used in our studies were in-house bred on a C57BL/6J background. Mice were double-housed and kept in a constant environment with the ambient temperature set to 22 ± 2 °C with constant humidity (45–65%) and a 12 h/12 h light/dark cycle with lights off from 06:00 until 18:00. For studies in DIO mice, male C57BL/6J mice were fed with a high-fat diet comprising 58% kilocalories from fat (D12331, Research Diets). db/db mice were fed with a normal chow diet (T1314, Altromin GmbH) throughout the study. At the beginning of each experiment, mice were equally distributed into experimental groups according to their body weight and body composition. All animal studies were approved by the State of Bavaria, Germany, or the Insitutional Animal Care and Use Committee of the University of Cincinnati, OH, USA and conducted on the basis of the underlying animal welfare law of the respective countries. Compounds were dissolved in PBS and were s.c. administered with a volume of 5 μl g^−1 body weight in the indicated doses between 15:00 and 16:00.
Glucose tolerance was assessed in 6 h fasted mice after i.p injection of 1.75 g glucose per kg body weight (DIO mice). Insulin tolerance was assessed in 6 h fasted mice after i.p. injection of either 0.75 U Insulin per […] body weight (DIO mice) or 1 U Insulin per […] body weight (db/db mice) (Humalog, Eli Lilly). Tail vein blood glucose was subsequently measured using a handheld glucometer (TheraSense Freestyle) at baseline and after 15, 30, 60 and 120 min.

hGLP-1R [2] = target: T1, hGLP-1R; test: Ligand-induced hGLP-1R-Rluc8 internalization (loss of BRET with Venus-KRAS) in HEK293T cells; format: cell-based; settings: HEK293 cells transfected with human GLP-1R; dose response, Fig. 1c; in words
Description: as §1, §2

hGLP-1R [3] = target: T1, hGLP-1R; test: Ligand-induced cAMP production (CAMYEL BRET sensor) in hGLP-1R+ HEK293T cells; format: cell-based; settings: HEK293 cells transfected with human GLP-1R; dose response, Fig. 1b; in words
Description: as §1, §2

lean C57BL/6J mice = test: 14-day treatment of lean mice: body weight, plasma cholesterol, triglycerides, AST, ALT, heart weight (Fig. 2n–s); format: in vivo, mouse; parameters: Cholesterol / TAG: unit not given here
Description: as §3

[4] = test system: Fabp4, Plin2, Arntl, Sema3c; test: PPAR target gene expression in liver (Fabp4, Plin2) and skeletal muscle (Arntl, Sema3c) of DIO mice (Fig. 2j–m); format: in vivo, mouse
Description: For assessment of acute drug effects, animals were treated with the respective compounds 4 h before tissue harvesting. Dissected tissues were frozen immediately on dry ice, and RNA was isolated using RNeasy Mini Kits (Qiagen). mRNA levels were determined using TaqMan probes for fatty acid binding protein 4 (Fabp4, Mm00445878_m1), perilipin-2 (Plin2, Mm00475794_m1), aryl hydrocarbon receptor nuclear translocator-like protein 1 (Arntl, Mm00500223_m), semaphorin 3 C (Sema3c, Mm00443121_m1) and hypoxanthine phosphoribosyltransferase 1 (Hprt, Mm03024075_m1) in custom-made low density array cards (Thermo Fisher) or in single assays on a QuantStudio 7 Real-Time PCR system. Target gene expression was normalized to HPRT and fold change was calculated relative to vehicle-treated controls.

For `CCO[C@@H](Cc1ccc(OCCc2ccc(OS(C)(=O)=O)cc2)cc1)C(=O)O` [tesaglitazar, (S)-2-ethoxy-3-(4-(4-((methylsulfonyl)oxy)phenethoxy)phenyl) propanoic acid], the “cFOS (cFos positive neurons in the ARC)” value (cFOS; Fig. 7b, 47-week-old male DIO mice, single s.c. 150 nmol kg−1, 90 min, individual mice) was 43 and 38 and 21 and 45, the cFOS (cFOS; Suppl. Fig. 4b, animal 1 of the group) was 55 and the cFOS (cFOS; Suppl. Fig. 4b, animal 2 of the group) was 124. For the same molecule, the cFOS (cFOS; Suppl. Fig. 4b, animal 3 of the group) was 77, the cFOS (cFOS; Suppl. Fig. 4b, animal 4 of the group) was 96 and the cFOS (cFOS; Suppl. Fig. 4c, animal 1 of the group) was 13. The cFOS (cFOS; Suppl. Fig. 4c, animal 2 of the group) was 9, the cFOS (cFOS; Suppl. Fig. 4c, animal 3 of the group) was 15 and the cFOS (cFOS; Suppl. Fig. 4c, animal 4 of the group) was 20. For the same molecule, the “GLP-1R-mediated Gαs recruitment” value (hGLP-1R [1]) was “had no effect”, the AOC (DIO mice; 10 nmol/kg) was 602.5 and 1138 and 938 and 739 and 687.5 and 514.5 and 579.5 and 713.5 and the AOC (DIO mice; 100 nmol/kg) was 808 and 562 and 500.5 and 764.5 and 734.5 and 596.5 and 539.5 and 745.5. The i.p. glucose tolerance (DIO mice; weight-matched DIO mice, single bolus 10 and 100 nmol kg−1, GTT 6 h after dose, Fig. 3a,b, in words) was “acutely worsened i.p. glucose tolerance”, the GLP-1R internalization (hGLP-1R [2]) was “had no effect” and the cAMP production (hGLP-1R [3]) was “had no effect”. The “Heart weight/Tibia” value (lean C57BL/6J mice; 14-day treatment, individual animals (Fig. 2s)) was 88.25 and 101.20 and 133.32 and 102.79 and 98.68 and 111.28 and 98.00 and 103.11, the plasma cholesterol levels (lean C57BL/6J mice; 14 days, 50 nmol kg−1 per day, Fig. 2o, in words) was “reduced plasma cholesterol levels” and the TAG (lean C57BL/6J mice; plasma triglycerides, 14-day treatment, individual animals (Fig. 2p)) was 28.51 and 67.33 and 61.82 and 37.82 and 28.64 and 34.88 and 35.62 and 62.31. The Cholesterol (lean C57BL/6J mice; plasma, 14-day treatment, individual animals (Fig. 2o)) was 68.85 and 109.93 and 69.31 and 90.92 and 65.38 and 84.58 and 89.99 and 80.51, the ALT (lean C57BL/6J mice; plasma, 14-day treatment, individual animals (Fig. 2q), in U/L (unit assumed)) was 7.51 and 24.40 and 11.85 and 4.07 and 8.93 and 10.70 and 5.04 and 14.23 and the AST (lean C57BL/6J mice; plasma, 14-day treatment, individual animals (Fig. 2r), in U/L (unit assumed)) was 11.14 and 10.87 and 31.82 and 15.56 and 14.94 and 16.00 and 16.09 and 19.09. The “expression of known PPAR target genes in liver (Fabp4, Plin2) and skeletal muscle (Arntl, Sema3c)” value ([4]; 30-week-old male DIO mice, 3 days, 50 nmol kg−1 per day, Fig. 2j–m, in words) was “induced expression of known PPAR target genes”, the Fabp4 ([4]; DIO mice, Figure 2j, gene expression in liver, individual mice) was 8.80 and 6.98 and 3.76 and 4.88 and 3.64 and 11.43 and 6.16 and 1.27 and the Plin2 ([4]; DIO mice, Figure 2k, gene expression in liver, individual mice) was 1.24 and 1.51 and 1.57 and 2.00 and 1.99 and 2.32 and 2.01 and 1.45. For the same molecule, the Arntl ([4]; DIO mice, Figure 2l, gene expression in skeletal muscle, individual mice, sheet notes an outlier based on grubbs test) was 1.55 and 1.75 and 2.01 and 1.16 and 1.39 and 1.34 and 1.60 and 1.28 and the Sema3c ([4]; DIO mice, Figure 2m, gene expression in skeletal muscle, individual mice, sheet notes an outlier based on grubbs test) was 1.70 and 1.69 and 1.38 and 1.05 and 1.02 and 1.72 and 1.95 and 2.14.
